Experimental findings from patent US10407691B2 (priority 2014, dated 2019) are described below.

Experiment [1] relates to tpst-1 seedlings. Further details: species or system Arabidopsis thaliana. The conditions noted are these: in vivo.
For experiment [2], the system named is rice seedlings. More on the design: species or system Oryza sativa sp. japonica. The note with it: in vivo.
Experiment [3] has as its target T1, XA21 (Oryza sativa subsp. indica, UniProt Q1MX30). In words: cell-based. It is filed as cell-based, Oryza sativa ssp. japonica.
In experiment [4] the test system is Arabidopsis seedlings. Further details: species or system Arabidopsis thaliana. The conditions noted are these: in vivo.
Experiment [5] deals with Arabidopsis seedlings. Further details: species or system Arabidopsis thaliana. The conditions noted are these: in vivo. The source holds these as a separate data set.
Experiment [6] deals with T1, XA21. It is filed as cell-based, Oryza sativa ssp. japonica.
In experiment [7] the target is T1, XA21. It is filed as cell-based, Oryza sativa ssp. japonica. This is another data set of the same source.

Entries after “also recorded” stand apart in the source; their conditions may differ. Non-standard residues stand in square brackets, D forms with d. Residues, ends and D or L forms follow the SMILES beside them. sY = N[C@@H](Cc1ccc(OS(=O)(=O)O)cc1)C(=O)O

T1 sequence (Q1MX30 24-1025 limits assumed): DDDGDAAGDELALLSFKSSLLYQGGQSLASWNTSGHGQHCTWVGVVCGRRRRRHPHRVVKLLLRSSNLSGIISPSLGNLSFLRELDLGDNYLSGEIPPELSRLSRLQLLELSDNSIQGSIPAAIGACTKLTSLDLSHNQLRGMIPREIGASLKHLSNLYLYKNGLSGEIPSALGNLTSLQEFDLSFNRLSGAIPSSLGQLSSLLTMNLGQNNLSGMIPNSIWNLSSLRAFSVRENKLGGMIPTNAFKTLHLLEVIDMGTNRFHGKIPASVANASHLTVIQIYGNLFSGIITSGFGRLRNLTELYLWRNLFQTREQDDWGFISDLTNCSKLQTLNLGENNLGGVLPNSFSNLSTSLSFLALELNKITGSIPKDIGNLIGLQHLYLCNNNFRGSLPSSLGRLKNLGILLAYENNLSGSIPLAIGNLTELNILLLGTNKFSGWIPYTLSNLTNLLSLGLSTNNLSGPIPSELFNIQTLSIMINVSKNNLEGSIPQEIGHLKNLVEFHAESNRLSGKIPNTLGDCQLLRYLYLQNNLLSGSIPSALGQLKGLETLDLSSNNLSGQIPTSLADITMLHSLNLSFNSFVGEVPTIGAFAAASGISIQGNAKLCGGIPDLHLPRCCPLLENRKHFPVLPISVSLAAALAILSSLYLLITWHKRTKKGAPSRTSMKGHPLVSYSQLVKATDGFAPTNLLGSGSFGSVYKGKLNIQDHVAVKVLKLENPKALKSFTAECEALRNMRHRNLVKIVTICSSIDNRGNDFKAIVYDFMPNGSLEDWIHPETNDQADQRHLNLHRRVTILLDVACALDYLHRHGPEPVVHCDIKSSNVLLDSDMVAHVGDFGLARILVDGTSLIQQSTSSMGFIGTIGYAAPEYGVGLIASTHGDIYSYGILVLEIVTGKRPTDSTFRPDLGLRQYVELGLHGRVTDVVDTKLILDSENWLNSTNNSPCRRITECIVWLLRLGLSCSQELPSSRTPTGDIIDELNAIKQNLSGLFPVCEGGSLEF

In the case of “DY^SGDPSANPKHDPGVPPS [AtPSY1, reference compound]”, the root growth rate entry in experiment [1] is “increased root growth rate”. The root growth result in experiment [2] is on record as “significantly enhanced root growth”. Besides, the “ROS production over 90 min” value in experiment [3] is reported as “failed to induce ROS production”. Also, in experiment [4], the “dose dependent activity on root growth” value was “less active than RaxX21-sY and PSK”; the root growth entry is recorded as “increased root growth in a similar manner to that observed for treatment of wild type Col-0 seedlings; also recorded: also responds”. For the same compound, in experiment [5], the “effect on elf18-triggered growth inhibition” value is reported as “do not prevent elf18-triggered growth inhibition”.

Consider “LWKHVGGGDY^SPPSGPNTKHDPPPP [RaxX24-Xoc-sY]”, for which the root growth promotion result in experiment [4] is given as “promoted root growth on Arabidopsis seedlings in a manner similar to that of RaxX21-sY; also recorded: still capable of inducing root growth”.

Consider `CC(C)[C@H](NC(=O)[C@@H](N)Cc1c[nH]cn1)C(=O)NCC(=O)NCC(=O)NCC(=O)N[C@@H](CC(=O)O)C(=O)N[C@@H](Cc1ccc(OS(=O)(=O)O)cc1)C(=O)N1CCC[C@H]1C(=O)N1CCC[C@H]1C(=O)N1CCC[C@H]1C(=O)NCC(=O)N[C@@H](C)C(=O)N[C@@H](CC(N)=O)C(=O)N1CCC[C@H]1C(=O)N[C@@H](CCCCN)C(=O)N[C@@H](Cc1c[nH]cn1)C(=O)N[C@@H](CC(=O)O)C(=O)N1CCC[C@H]1C(=O)N1CCC[C@H]1C(=O)N1CCC[C@H]1C(=O)N[C@@H](CCCNC(=N)N)C(=O)O` [RaxX21-sY, HVGGGDY^SPPPGANPKHDPPPR] (H-HVGGGD[sY]PPPGANPKHDPPPR-OH), for which the root growth rate entry in experiment [1] is “increased root growth rate”. Also, in experiment [6], the ethylene production entry is “able to activate”. Besides, in experiment [2], the root growth entry is “significantly enhanced root growth; also recorded: promotes root growth in Arabidopsis and rice”; the root length entry is on record as “significantly longer roots”. For the same compound, in experiment [3], the ROS production entry was “significant RaxX21-sY-mediated upregulation of defense gene expression and ROS production; also recorded: induced ROS production and defense gene expression changes; also recorded: activates the production of ROS”; the “ROS production over 90 min” value was “triggered a ROS response characteristic of the XA21-mediated immune response”; the “XA21-mediated defense responses (ability to activate XA21-dependent signaling)” value (“XA21-mediated defense responses” below) was “trigger XA21-mediated defense responses”; the “total ROS production over 3 h” value is given as “retained the ability to induce XA21-dependent signaling; also recorded: able to activate”. For the same compound, in experiment [4], the average root length turned out to be 61 mm; the “dose dependent activity on root growth” value is “effective at inducing root growth at concentrations in the low nanomolar range”; the root growth promotion entry is “promoted root growth in a similar manner to that observed for AtPSY1; also recorded: promotes root growth in Arabidopsis and rice”; the root length result is “statistically longer root lengths”. In experiment [7], the defense gene expression result is “significant RaxX21-sY-mediated upregulation of defense gene expression and ROS production; also recorded: activates gene expression”; the “defense gene induction (Os06g37224)” value is “induced ROS production and defense gene expression changes”; the “defense marker gene expression (Os04g10100, PR10b, Os12g36830, Os06g37224), temporal changes” value is listed as “able to activate; also recorded: sufficient to activate XA21-mediated defense gene expression”. In addition, the “effect on elf18-triggered growth inhibition” value in experiment [5] is reported as “do not prevent elf18-triggered growth inhibition”.

On to DY^SPPPGANPKHDPPPR [RaxX16-sY], for which the root growth entry in experiment [2] was “still capable of promoting root growth”. Also, the “ROS production over 90 min” value in experiment [3] is “triggered a ROS response characteristic of the XA21-mediated immune response; also recorded: able to recognize”. Besides, the root growth promotion entry in experiment [4] is given as “still capable of promoting root growth”.

With `CC(C)C[C@H](N)C(=O)N[C@@H](Cc1c[nH]c2ccccc12)C(=O)N[C@@H](CCCCN)C(=O)N[C@@H](Cc1c[nH]cn1)C(=O)N[C@H](C(=O)NCC(=O)NCC(=O)NCC(=O)N[C@@H](CC(=O)O)C(=O)N[C@@H](Cc1ccc(OS(=O)(=O)O)cc1)C(=O)N1CCC[C@H]1C(=O)N1CCC[C@H]1C(=O)N1CCC[C@H]1C(=O)NCC(=O)N[C@@H](C)C(=O)N[C@@H](CC(N)=O)C(=O)N1CCC[C@H]1C(=O)N[C@@H](CCCCN)C(=O)N[C@@H](Cc1c[nH]cn1)C(=O)N[C@@H](CC(=O)O)C(=O)N1CCC[C@H]1C(=O)N1CCC[C@H]1C(=O)N1CCC[C@H]1C(=O)N[C@@H](CCCNC(=N)N)C(=O)O)C(C)C` [RaxX24-sY], in experiment [3], the EC50 is roughly 30 nM, the “XA21-mediated defense responses” value is listed as “trigger XA21-mediated defense responses” and the “total ROS production over 3 h” value is listed as “confirmed”.

“DY^SPAPGANPRHNPKRPPG [OsPSY1a, reference compound]”: the “ROS production over 90 min” value in experiment [3] is “failed to induce ROS production”.

Regarding `CC(C)C[C@H](NC(=O)[C@H](CCCNC(=N)N)NC(=O)[C@H](CCC(N)=O)NC(=O)[C@H](CC(=O)O)NC(=O)[C@H](CC(C)C)NC(=O)[C@@H]1CCCN1C(=O)[C@H](CCC(=O)O)NC(=O)[C@@H]1CCCN1C(=O)[C@H](CCCNC(=N)N)NC(=O)CNC(=O)[C@@H](N)CCCCN)C(=O)N[C@@H](Cc1c[nH]c2ccccc12)C(=O)N[C@@H](CCCCN)C(=O)N[C@@H](Cc1c[nH]cn1)C(=O)N[C@H](C(=O)NCC(=O)NCC(=O)NCC(=O)N[C@@H](CC(=O)O)C(=O)N[C@@H](Cc1ccc(OS(=O)(=O)O)cc1)C(=O)N1CCC[C@H]1C(=O)N1CCC[C@H]1C(=O)N1CCC[C@H]1C(=O)NCC(=O)N[C@@H](C)C(=O)N[C@@H](CC(N)=O)C(=O)N1CCC[C@H]1C(=O)N[C@@H](CCCCN)C(=O)N[C@@H](Cc1c[nH]cn1)C(=O)N[C@@H](CC(=O)O)C(=O)N1CCC[C@H]1C(=O)N1CCC[C@H]1C(=O)N1CCC[C@H]1C(=O)N[C@@H](CCCNC(=N)N)C(=O)N[C@@H](CC(N)=O)C(=O)N1CCC[C@H]1C(=O)NCC(=O)N[C@@H](Cc1c[nH]cn1)C(=O)N[C@@H](Cc1c[nH]cn1)C(=O)O)C(C)C` [RaxX39-sY], in experiment [3], the “XA21-mediated defense responses” value was “trigger XA21-mediated defense responses”. Moreover, the “defense gene expression (PR10b and Os06g37224)” value in experiment [7] is reported as “triggers defense gene expression in an XA21-dependent manner; also recorded: activates XA21-mediated defense gene expression”.

On to LWKHVGGGDYPPPGANPK [RaxX18-sY], for which, in experiment [3], the “ROS production dose response (activity)” value was “completely inactive”, the “XA21-mediated defense responses” value was “do not” and the “total ROS production over 3 h” value is on record as “compromised in this activity”.

As for “LWKHVGGGDY^SPPPGANTKHDPPPK [RaxX24-Xe-sY]”, in experiment [4], the root growth promotion result was “promoted root growth on Arabidopsis seedlings in a manner similar to that of RaxX21-sY”.

With “KGRPEPLDQRLWKHVGGGDYPPPGANPKHDPPPRNPGHH [RaxX39-Y]”, the “defense gene expression (PR10b and Os06g37224)” value in experiment [7] is “does not”.

Regarding “LWKHVGGGDY^SAPPGSNDRHDPPKP [RaxX24-Xcm-sY]”, the root growth promotion result in experiment [4] was “promoted root growth on Arabidopsis seedlings in a manner similar to that of RaxX21-sY”.

Regarding Y^SIY^STQ [PSK, reference compound], the “ROS production over 90 min” value in experiment [3] is “failed to activate XA21-mediated immune response”. Also, the “dose dependent activity on root growth” value in experiment [4] is on record as “comparable”. In experiment [5], the “effect on elf18-triggered growth inhibition” value was “attenuates elf18-mediated growth inhibition”.

On to DY^SPPPGANPKHDP [RaxX13-sY], for which the root growth entry in experiment [2] is recorded as “still capable of promoting root growth”. In addition, the “ROS production over 90 min” value in experiment [3] is given as “did not induce ROS production”. In addition, the root growth promotion result in experiment [4] was “still capable of promoting root growth”.

For HVGGGDYPPPGANPKHDPPPR [RaxX21-Y], in experiment [6], the ethylene production result is “not”. Also, the “dose dependent activity on root growth” value in experiment [4] is “promoted root growth, but was less active than the sulfated version”.

A word on the EC50: it is the concentration that produces a half-maximal response. Low readings indicate higher potency in that assay, high ones lower potency in that assay.
